Data: patent US7812022B2 (GlaxoSmithKline LLC, priority 2004, dated 2010)

Assays:
[1] = test system: BT474 and HN5 tumor cell lines; experiment: Methylene blue growth inhibition assay (cellular Method A); type: cell-based, Human; conditions: Homo sapiens, BT-474, 72 h, 3 days, read-out: Activity (Method): growth inhibition IC50 class
Method in brief: (§1)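 Growth inhibition measured by methylene blue staining of biomass (OD 620) after 3 days' compound exposure at 37° C, final DMSO 0.3%. Cell lines: BT474 (10,000/well), HN5 (3,000/well) and Colo205, all in DMEM with 10% FBS; IC50 fitted by nonlinear regression against vehicle-treated wells.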

ErbB2 or EGFR = biological target: T1, ErbB2 or EGFR; experiment: ErbB family substrate phosphorylation enzyme assay (HTRF), Method A or Method B; type: biochemical
T1 construct: enzymes purified from a baculovirus expression system; Reagent production was conducted essentially as described in Brignola, P. S., et al, (2002) J. Biol. Chem. 277(2): 1576-1585
Method in brief: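 Baculovirus-expressed EGFR or ErbB2 (0.8 or 10 nM in enzyme mix) phosphorylates biotinylated Peptide C with 20 µM ATP and 0.8 µM peptide (substrate-mix levels), MnCl2, pH 7.5. Reaction ran 90 min at 20 °C with EDTA stop and HTRF anti-phosphotyrosine read. Method A: enzyme added last; Method B: 1 h enzyme–compound preincubation.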

Colo205 tumor cell lines = experiment: Methylene blue growth inhibition assay (cellular Method A), Colo205; type: cell-based, Human; conditions: Homo sapiens, COLO 205, 72 h, 3 days, read-out: Activity (Method): growth inhibition IC50 class
Method in brief: as §1

[2] = Method B: enzyme mix pre-incubated with compound 1 hour at 20° C., started with substrate mix
[3] = Method A: substrate mix added first, reaction started with enzyme mix

SMILES	IC50 [1] [nM]	Activity (Method): pIC50 class against ErbB2 or EGFR (ErbB2 or EGFR; [2])	IC50 (Colo205 tumor cell lines) [nM]	Activity (Method): pIC50 class against ErbB2 or EGFR (ErbB2 or EGFR; [3])
CN1CCC[C@H]1COc1ccc(Nc2nccc(-c3c(-c4cccc(NC(=O)c5c(F)cccc5F)c4)nn4ccccc34)n2)cc1F [Example 132, 2,6-Difluoro-N-{3-[3-(2-{[3-fluoro-4-({[(2S)-1-methyl-2-pyrrolidinyl]methyl}oxy)phenyl]amino}-4-pyrimidinyl)pyrazolo[1,5-a]pyridin-2-yl]phenyl}benzamide]	< 100	+++ (B) (at least one pIC50 measurement of greater than 7 against either ErbB2 or EGFR)	< 100	
CCS(=O)(=O)c1ccc(OC)c(Nc2nccc(-c3c(-c4cccc(NC(=O)c5c(F)cccc5F)c4)nn4ccccc34)n2)c1 [Example 121, N-{3-[3-(2-{[5-(ethylsulfonyl)-2-(methyloxy)phenyl]-amino}-4-pyrimidinyl)pyrazolo[1,5-a]pyridin-2-yl]phenyl}-2,6-difluorobenzamide]	100 to 1000		> 1000	+++ (A) (at least one pIC50 measurement of greater than 7 against either ErbB2 or EGFR)
O=C(Nc1cccc(-c2nn3ccccc3c2-c2ccnc(Nc3cccc(O)c3)n2)c1)c1c(F)cccc1F [Example 59, 2,6-Difluoro-N-[3-(3-{2-[(3-hydroxyphenyl)amino]-4-pyrimidinyl}pyrazolo[1,5-a]pyridin-2-yl)phenyl]benzamide]	< 100	+++ (B) (at least one pIC50 measurement of greater than 7 against either ErbB2 or EGFR)	> 1000	
O=C(Nc1cccc(-c2nn3ccccc3c2-c2ccnc(Nc3cccc(F)c3)n2)c1)c1cc(F)ccc1Cl [Example 11, 2-Chloro-5-fluoro-N-(3-{3-[2-(3-fluoro-phenylamino)-pyrimidin-4-yl]-pyrazolo[1,5-a]pyridin-2-yl}-phenyl)-benzamide]	100 to 1000	+++ (B) (at least one pIC50 measurement of greater than 7 against either ErbB2 or EGFR)	> 1000	
NS(=O)(=O)c1cccc(Nc2nccc(-c3c(-c4cccc(NC(=O)c5c(F)cccc5F)c4)nn4ccccc34)n2)c1 [Example 118, N-{3-[3-(2-{[3-(aminosulfonyl)phenyl]amino}-4-pyrimidinyl)pyrazolo[1,5-a]pyridin-2-yl]phenyl}-2,6-difluorobenzamide]	< 100	+++ (B) (at least one pIC50 measurement of greater than 7 against either ErbB2 or EGFR)	100 to 1000	
NS(=O)(=O)CCc1cccc(Nc2nccc(-c3c(-c4cccc(NC(=O)c5c(F)cccc5F)c4)nn4ccccc34)n2)c1 [Example 119, N-(3-{3-[2-({3-[2-(aminosulfonyl)ethyl]phenyl}-amino)-4-pyrimidinyl]pyrazolo[1,5-a]pyridin-2-yl}phenyl)-2,6-difluorobenzamide]	< 100	+++ (B) (at least one pIC50 measurement of greater than 7 against either ErbB2 or EGFR)	100 to 1000	
COc1ccc(Nc2nccc(-c3c(-c4cccc(NC(=O)c5cc(F)ccc5F)c4)nn4ccccc34)n2)cc1F [Example 46, 2,5-Difluoro-N-{3-[3-(2-{[3-fluoro-4-(methyloxy)phenyl]amino}-4-pyrimidinyl)pyrazolo[1,5-a]pyridin-2-yl]phenyl}benzamide]	> 1000	+ (B) (no pIC50 measurement greater than 6 against either ErbB2 or EGFR)	> 1000	
CN1CCN(CCOc2ccc(Nc3nccc(-c4c(-c5cccc(NC(=O)c6c(F)cccc6F)c5)nn5ccccc45)n3)cc2)CC1 [Example 106, 2,6-Difluoro-N-[3-(3-{2-[(4-{[2-(4-methyl-1-piperazinyl)ethyl]oxy}phenyl)amino]-4-pyrimidinyl}pyrazolo[1,5-a]pyridin-2-yl)phenyl]benzamide]	< 100		100 to 1000	+++ (A) (at least one pIC50 measurement of greater than 7 against either ErbB2 or EGFR)
CN(C)CCCNc1ccc(Nc2nccc(-c3c(-c4cccc(NC(=O)c5c(F)cccc5F)c4)nn4ccccc34)n2)cc1F [Example 41, N-[3-(3-{2-[(4-{[3-(dimethylamino)propyl]amino}-3-fluorophenyl)amino]-4-pyrimidinyl}pyrazolo[1,5-a]pyridin-2-yl)phenyl]-2,6-difluorobenzamide]	< 100	+++ (B) (at least one pIC50 measurement of greater than 7 against either ErbB2 or EGFR)	100 to 1000	
C=CCN(C)CCOc1cccc(Nc2nccc(-c3c(-c4cccc(NC(=O)c5cc(F)ccc5F)c4)nn4ccccc34)n2)c1 [Example 196, 2,5-Difluoro-N-{3-[3-(2-{[3-({2-[methyl(2-propen-1-yl)amino]ethyl}oxy)phenyl]amino}-4-pyrimidinyl)pyrazolo[1,5-a]pyridin-2-yl]phenyl}benzamide]	< 100	+++ (B) (at least one pIC50 measurement of greater than 7 against either ErbB2 or EGFR)	100 to 1000	
NC1Cc2ccc(Nc3nccc(-c4c(-c5cccc(NC(=O)c6c(F)cccc6F)c5)nn5ccccc45)n3)cc2C1 (stereo not drawn) [Example 177, N-[3-(3-{2-[(2-Amino-2,3-dihydro-1H-inden-5-yl)amino]-4-pyrimidinyl}pyrazolo[1,5-a]pyridin-2-yl)phenyl]-2,6-difluorobenzamide]	< 100	+++ (B) (at least one pIC50 measurement of greater than 7 against either ErbB2 or EGFR)	100 to 1000	
Cc1nc2cc(Nc3nccc(-c4c(-c5cccc(NC(=O)c6c(F)cccc6F)c5)nn5ccccc45)n3)ccc2s1 [Example 199, 2,6-Difluoro-N-[3-(3-{2-[(2-methyl-1,3-benzothiazol-5-yl)amino]-4-pyrimidinyl}pyrazolo[1,5-a]pyridin-2-yl)phenyl]benzamide]	< 100	+++ (B) (at least one pIC50 measurement of greater than 7 against either ErbB2 or EGFR)	> 1000	
COc1ccc(Nc2nccc(-c3c(-c4cccc(NC(=O)c5c(F)cccc5F)c4)nn4ccccc34)n2)cc1N1CCN(C)CC1 [Example 201, 2,6-Difluoro-N-{3-[3-(2-{[4-(methyloxy)-3-(4-methyl-1-piperazinyl)phenyl]amino}-4-pyrimidinyl)pyrazolo[1,5-a]pyridin-2-yl]phenyl}benzamide]	< 100	+++ (B) (at least one pIC50 measurement of greater than 7 against either ErbB2 or EGFR)	100 to 1000	
CCN1CCN(c2ccc(Nc3nccc(-c4c(-c5cccc(NC(=O)c6c(F)cccc6F)c5)nn5ccccc45)n3)cc2)CC1 [Example 107, N-{3-[3-(2-{[4-(4-ethyl-1-piperazinyl)phenyl]amino}-4-pyrimidinyl)pyrazolo[1,5-a]pyridin-2-yl]phenyl}-2,6-difluorobenzamide]	< 100	+++ (B) (at least one pIC50 measurement of greater than 7 against either ErbB2 or EGFR)	< 100	
Cc1ccc(F)c(C(=O)Nc2cccc(-c3nn4ccccc4c3-c3ccnc(Nc4cccc(OCCN(C)C)c4)n3)c2)c1F [Example 190, N-[3-(3-{2-[(3-{[2-(Dimethylamino)ethyl]oxy}phenyl)amino]-4-pyrimidinyl}pyrazolo[1,5-a]pyridin-2-yl)phenyl]-2,6-difluoro-3-methylbenzamide]	< 100	+++ (B) (at least one pIC50 measurement of greater than 7 against either ErbB2 or EGFR)	100 to 1000	
COc1ccc(Nc2nccc(-c3c(-c4cccc(NC(=O)c5c(F)cccc5F)c4)nn4ccccc34)n2)cc1F [Example 29, 2,6-Difluoro-N-{3-[3-(2-{[3-fluoro-4-(methyloxy)-phenyl]amino}-4-pyrimidinyl)pyrazolo[1,5-a]pyridin-2-yl]phenyl}benzamide]	< 100		> 1000	++ (A) (at least one pIC50 measurement greater than 6 against either ErbB2 or EGFR but no measurement greater than pIC50 of 7)
O=C(Nc1cccc(-c2nn3ccccc3c2-c2ccnc(Nc3ccc(CCN4CCOCC4)cc3)n2)c1)c1c(F)cccc1F [Example 56, 2,6-Difluoro-N-(3-{3-[2-({4-[2-(4-morpholinyl)ethyl]-phenyl}amino)-4-pyrimidinyl]pyrazolo[1,5-a]pyridin-2-yl}phenyl)benzamide]	< 100	+++ (B) (at least one pIC50 measurement of greater than 7 against either ErbB2 or EGFR)	100 to 1000	
O=C(Nc1cccc(-c2nn3ccccc3c2-c2ccnc(Nc3cccc(F)c3)n2)c1)c1cccs1 [Example 25, N-[3-(3-{2-[(3-fluorophenyl)amino]-4-pyrimidinyl}pyrazolo[1,5-a]pyridin-2-yl)phenyl]-2-thiophenecarboxamide]	100 to 1000	+++ (B) (at least one pIC50 measurement of greater than 7 against either ErbB2 or EGFR)	> 1000	
